Entries after “also recorded” stand apart in the source; their conditions may differ.
Assays:
CYP-induced cystitis = assay: Cystometrographic recordings in conscious rats with CYP-induced cystitis; type: in vivo, rat; details: for bladder volume capacity (BVC): 24 hours after CYP 175 mg/kg i.p.
Method: Female Sprague Dawley rats (Crl:CD(SD)BR, 250-350 g bw) from Charles River Italy were used in these experiments. Animals were housed with free access to food and water and maintained on a forced 12 hours light-dark cycle at 22-24° C. for at least one week before the experiments were carried out.
Rats, anaesthetized with equithensin solution (2 ml/kg i.p.), were placed in a supine position and an approximately 10 mm midline incision was made in the shaved and cleaned abdominal wall. The urinary bladder was gently freed from adhering tissues, emptied and then cannulated, via an incision at the dome, with a polyethylene cannula (Portex, ID 0.58 mm, OD 0.96 mm), which was permanently sutured with silk thread. The cannula was exteriorized through a subcutaneous tunnel in the retroscapular area, where it was connected with a plastic adapter, in order to avoid the risk of removal by the animal.
For drugs testing, rats were utilized one day after catheter implantation at about 24 hours after administrations CYP.
On the day of the experiment, the rats (fasted overnight) were placed in Bollman's cages; after a stabilization period of 20 min, the free tip of the cannula was connected by a T-shape tube to a pressure transducer and to a peristaltic pump for a continuous infusion of saline solution (room temperature) into the urinary bladder, at the constant rate of 0.05 ml/min. This procedure, termed cystometry, allows the detection of continuous cycles of filling and voiding of the bladder named cystometrograms.
From the cystometrograms acquired by the Biopac System and recorded on a PC the Bladder Volume Capacity (BVC) parameter was calculated as volume capacity, defined as volume (in ml) infused into the bladder and necessary to induce detrusor contraction followed micturition.
Basal BVC was evaluated as mean values from the cystometrograms recorded in 30-60 minutes of time prior the treatment (“BASAL”). Then the bladder infusion was stopped, the animals were treated orally with the test compound or vehicle and, after restarting continuous bladder filling with saline for 4 or 5 hours, BVC values after administration were collected.
BVC parameters were recorded from the cystometrogram over a 4/5 hours period post-dose.

[1] = tested on: CYP-induced visceral pain; assay: Chronic preventive treatment in CYP-induced visceral pain model in rats; comparison with Mesna; type: in vivo, rat; details: 7 mg/kg twice daily p.o. for 7 days
Method: The effect of chronic preventive administration of Compd. 1 in a visceral pain model induced by repeated administration of cyclophosphamide (CYP) in conscious rats was evaluated.
The oral dose of 7 mg/kg of Compd. 1 was chosen on the basis of previous evaluations. Compd. 1 or vehicle was orally administered to animals twice daily (according to the PK profile of the molecule) for 7 days. Mesna_or vehicle was intraperitoneally administered several times a day for 3 days (when CYP was administered).
Repeated treatment with CYP (75 mg/kg i.p. for 3 times, every 3rd day), induced a strong decrease in withdrawal thresholds to noxious stimulus measured at the level of low abdomen and hind-paws. Nociceptive hypersensitivity was evaluated. In the control group, nociceptive thresholds of abdomen and hind-paws were not altered after the treatment with vehicle.
Behavioral testing was performed at 4 different times: • before CYP administration (in order to acquire basal values) • after CYP administration and before treatment with the tested compound, to verify the pathology (in order to acquire pre-treatment values) • after treatment, 42 or 48 hours from the last administration of Compd. 1 or Mesna.

[2] = Pharmacokinetic profile after oral administration; type: in vivo

For `C[C@H](C(=O)O)c1ccc(Nc2nc(C(F)(F)F)cs2)cc1` [Compd. 1, (2S)-2-(4-{[4-(trifluoromethyl)-1,3-thiazol-2-yl]amino}phenyl) propanoic acid], the “bladder volume capacity (BVC)” value (CYP-induced cystitis; 10 mg/kg oral) was “did not induce any changes of BVC”, the “bladder volume capacity (BVC)” value (CYP-induced cystitis; 20 mg/kg oral) was “moderate increase of BVC statistically different from vehicle and pre-drug treatment at 4 and 5 hours” and the “bladder volume capacity (BVC)” value (CYP-induced cystitis; 30 mg/kg oral) was “sustained increase of BVC”. The “increase of BVC” value (CYP-induced cystitis; 30 mg/kg oral, significant at 3 and 4 hours after treatment) was “up to +40%”, the MP (CYP-induced cystitis; 20 and 30 mg/kg oral) was “inactive on MP” and the “nociceptive hypersensitivity in hind-paws plantar surface” value [1] was “completely reversed the nociceptive hypersensitivity in hind-paws plantar surface”. For the same compound, the “withdrawal thresholds in the abdomen” value [1] was “almost complete recovery of withdrawal thresholds in the abdomen”, the “distribution in the tissues” value ([2]; in vivo) was “poorly distributed in the tissues” and the elimination from plasma ([2]; in vivo) was “gradually eliminated from plasma”. For the same compound, the oral bioavailability ([2]; in vivo, po) was “excellent oral bioavailability”, the absorption ([2]; oral route) was “rapid absorption; also recorded: well absorbed by the oral route” and the “time of maximum concentration in plasma after administration” value ([2]; plasma) was 2 h. It also gave a Cmax ([2]; plasma, oral, read-out: maximum concentration (Cmax) in plasma) of 47400 ± 25400 ng/mL.

Source: patent US12150933B2, “IL-8 inihibitors for use in the treatment of some urological disorders” (DOMPÉ FARMACEUTICI S.P.A., priority 2015, dated 2024)
